Literature values as cited in US9132083B2, “Delivery system comprising a silicon-containing material” (SISAF Ltd., priority 2009, dated 2015).

- pKa: about 6
SMILES: [Na+].[O-][Si](O)(O)O [Na^+(OSA)^− salt]
